How the values were obtained:
[1] = molar heat capacity at saturation pressure; conditions: Liquid
[2] = Molar enthalpy of transition or fusion; conditions: Crystal
[3] = Crystal

CCCCCO [pentan-1-ol]
[1]
Conditions | molar heat capacity [J/K/mol]
263.36 K | 185.17
263.95 K | 185.84
265.47 K | 186.38
266.05 K | 186.93
267.57 K | 187.55
268.14 K | 188.12
269.66 K | 188.85
270.23 K | 189.24
271.74 K | 190.03
272.3 K | 190.52
273.81 K | 190.93
274.36 K | 191.79
275.87 K | 192.5
276.41 K | 193.06
277.92 K | 193.85
278.46 K | 194.4
279.97 K | 195.18
280.49 K | 195.74
282 K | 196.61
282.51 K | 197.04
284.02 K | 197.96
284.53 K | 198.45
286.03 K | 199.37
286.53 K | 199.91
288.04 K | 200.78
288.52 K | 201.35
290.03 K | 202.3
290.5 K | 202.81
292.01 K | 203.82
292.48 K | 204.11
293.99 K | 205.24
294.44 K | 205.79
295.95 K | 206.87
296.39 K | 207.42
297.91 K | 208.52
298.34 K | 208.88
299.85 K | 210.01
300.27 K | 210.28
300.3 K | 209.4
300.6 K | 209.89
300.81 K | 210.54
301.09 K | 210.46
301.72 K | 211.03
302.2 K | 211.81
303.67 K | 212.74
304.12 K | 213.39
305.6 K | 214.44
306.03 K | 215.06
307.52 K | 216.02
307.94 K | 216.66
309.43 K | 217.84
309.83 K | 218.39
311.32 K | 219.47
311.72 K | 219.98
313.21 K | 221.03
313.59 K | 221.54
315.09 K | 222.83
315.46 K | 223.3
316.96 K | 224.55
317.31 K | 224.93
318.82 K | 226.26
319.16 K | 226.53
320.67 K | 228
320.99 K | 228.31
322.52 K | 229.67
322.82 K | 229.96
324.36 K | 231.42
324.65 K | 231.73
326.19 K | 233.09
326.46 K | 233.41
328.01 K | 234.81
328.27 K | 235
329.82 K | 236.6
330.07 K | 236.82
331.62 K | 238.27
331.85 K | 238.73
333.42 K | 239.94
333.63 K | 240.3
335.2 K | 241.58
335.4 K | 241.97
336.98 K | 243.24
337.16 K | 243.65
338.75 K | 244.92
338.92 K | 245.3
340.51 K | 246.6
340.66 K | 246.9
342.27 K | 248.02
342.4 K | 248.57
344.02 K | 249.71
344.13 K | 250.3
345.76 K | 251.26
345.85 K | 252.05
347.5 K | 252.83
347.57 K | 253.58
349.23 K | 254.25
349.27 K | 255.13
350.95 K | 255.52
350.97 K | 256.62
352.66 K | 258.17
352.67 K | 256.89
354.35 K | 259.96
354.38 K | 259.82
356.02 K | 261.44
356.07 K | 261.38
357.7 K | 262.72
357.76 K | 262.85
359.36 K | 264.29
359.43 K | 264.36
361.02 K | 265.62
361.1 K | 265.85
362.67 K | 266.89
362.77 K | 267.17
364.32 K | 268.43
364.43 K | 268.78
365.96 K | 269.86
366.08 K | 270.13
367.59 K | 270.92
367.73 K | 271.33
369.23 K | 271.93
369.37 K | 272.76
370.86 K | 272.95
371.01 K | 274.05
372.64 K | 275.14
374.27 K | 276.38
375.89 K | 277.43
377.52 K | 278.66
379.14 K | 279.32
380.76 K | 280.36

Conditions | Molar enthalpy of transition or fusion [kJ/mol] | Triple point temperature [K]
[2] | 10.51 | –
[3] | – | 195.6

Reference: the NIST ThermoML archive (doi:10.1021/je0499768)
